ChEMBL document CHEMBL4739717, “Methods of treating cartilage disorders through inhibition of clk and dyrk” (2020)

Experiments:
[1] = Effect on Wnt signaling pathway in human SW480 cells harbouring TCF/LEF luciferase reporter gene and SP5-Luc reporter gene incubated for 36 to 48 hrs by luminescence assay; format: cell-based
[2] = molecular target: Dual specificity tyrosine-phosphorylation-regulated kinase 1A (Homo sapiens, UniProt Q13627); test: Inhibition of recombinant DYRK1A (unknown origin) using Ser/Thr 18 peptide as substrate incubated for 1 hr in presence of ATP by FRET assay
[3] = Induction of chondrogenesis in human MSC assessed as maximum activity at 100 nM incubated for 6 days by rhodamine B and Nile red staining based imaging analysis relative to control; format: functional; settings: BMMSC, 144 h, time 6 day
[4] = Induction of chondrogenesis in human MSC assessed as incubated for 6 days by rhodamine B and Nile red staining based imaging analysis; format: functional; settings: bmmsc

Row | EC50 [1] | EC50 [2] | EC50 [4] | SMILES | Emax at 0.1 µM [3]
1 | 2900 nM | 28 nM | 30 nM | Cc1cn(-c2nccc3[nH]c(-c4n[nH]c5ccc(-c6cncc(NC(=O)CC(C)C)c6)nc45)nc23)cn1 | 69.3%
2 | 915 nM | 13 nM | 30 nM | CCCCC(=O)Nc1cncc(-c2ccc3[nH]nc(-c4cc5c(-c6ccoc6)cncc5[nH]4)c3c2)c1 | 122%
3 | > 10000 nM | 15 nM | 10 nM | Nc1cncc(-c2ccc3[nH]nc(-c4nc5c(-c6ccccc6F)ccnc5[nH]4)c3n2)c1 | 127%
4 | > 10000 nM | 45 nM | 10 nM | Cc1ccncc1-c1ccc2[nH]nc(-c3cc4c(-c5cccnc5)cncc4[nH]3)c2n1 | 149%
5 | 40.7 nM | 2 nM | 30 nM | Cc1ccc(-c2cncc3[nH]c(-c4n[nH]c5ccc(-c6cncc(N)c6)nc45)nc23)s1 | 79.4%
6 | 63 nM | 25 nM | 100 nM | CCCC(=O)Nc1cncc(-c2cnc3[nH]nc(-c4nc5c(-c6ccoc6)cccc5[nH]4)c3c2)c1 | 111%
7 | 21 nM | 11 nM | 30 nM | CN(C)Cc1cncc(-c2cnc3[nH]nc(-c4nc5c(-c6cc(F)cc(N7CCOCC7)c6)cncc5[nH]4)c3c2)c1 | 114%
8 | 473 nM | 46 nM | 100 nM | O=C(Nc1cncc(-c2cnc3[nH]nc(-c4cc5c(-c6cccs6)nccc5[nH]4)c3c2)c1)C1CCC1 | 82.2%
9 | 1750 nM | 14 nM | 10 nM | CC(C)Nc1cncc(-c2ccc3[nH]nc(-c4nc5c(-c6cccnc6)ccnc5[nH]4)c3n2)c1 | 114%
10 | 1340 nM | 17 nM | 100 nM | c1cncc(-c2cc3c(-c4cc5c(-c6cccnc6)cncc5[nH]4)n[nH]c3cn2)c1 | 76.4%
11 | 12.5 nM | 5 nM | 100 nM | Cc1ncc(-c2cnc3[nH]nc(-c4nc5c(-c6cccc(F)c6)nccc5[nH]4)c3c2)n1C | 152%
12 | 51 nM | 30 nM | 100 nM | O=C(Nc1cncc(-c2cnc3[nH]nc(-c4nc5c(-c6ccoc6)cncc5[nH]4)c3c2)c1)c1ccccc1 | 110%

The remaining lines, values behind:

Row | SMILES | EC50 [1] | EC50 [2] | EC50 [4] | Emax at 0.1 µM [3]
13 | CN1CCN(c2cncc3[nH]c(-c4n[nH]c5ccc(-c6cncc(NC(=O)CC7CCNCC7)c6)cc45)cc23)CC1 | > 10000 nM | 15 nM | 100 nM | 289%
14 | CN(C)CCNc1cc(F)cc(-c2cccc3[nH]c(-c4n[nH]c5cnc(-c6cncc(N)c6)cc45)cc23)c1 | 407 nM | 23 nM | 100 nM | 180%
15 | Cc1ccncc1-c1cc2c(-c3cc4cnccc4[nH]3)n[nH]c2cn1 | 389 nM | 11 nM | 10 nM | 61.4%
16 | CC(C)(C)CC(=O)Nc1cncc(-c2cc3c(-c4cc5cnccc5[nH]4)n[nH]c3cn2)c1 | 1890 nM | 3 nM | 10 nM | 58.8%
17 | CN(C)CCOc1cncc(-c2ccc3[nH]nc(-c4nc5c(-c6cccs6)cccc5[nH]4)c3n2)c1 | 3110 nM | 41 nM | 10 nM | 142%
18 | CN1CCN(c2cccc3[nH]c(-c4n[nH]c5ncc(-c6cncc(CN7CCCCC7)c6)cc45)cc23)CC1 | 4750 nM | 34 nM | 300 nM | 23.6%
19 | CCCCC(=O)Nc1cncc(-c2ccc3[nH]nc(-c4cc5c(N6CCCCC6)cccc5[nH]4)c3n2)c1 | 572 nM | 40 nM | 100 nM | 68.6%
20 | c1cc2[nH]c(-c3n[nH]c4ccc(-c5cncc(CN6CCCCC6)c5)cc34)cc2cn1 | 685 nM | 4 nM | 100 nM | 122%
